Entries after “also recorded” stand apart in the source; their conditions may differ.
Key:
[1] = tested on: Cdk9 foci at the Pou5f1 locus; assay: Cdk9 cluster signal at Pou5f1 upon inhibition (live-cell confocal/STED scans); type: cell-based, mouse; settings: for Cdk9 signal at Pou5f1 upon inhibition: 1 μM JQ1 (within 1 min) or 10 μM Flavopiridol
From the text: If rapid Pou5f1 shut-down reflects significant Cdk9 portion being recruited through Brd4-acetylated histone recognition, both Brd4 and Cdk9 clustering would dissipate upon JQ1 inhibition. […] Cdk9/Med22 focal accumulation appears to be stabilized through highly-specific molecular recognition-multiple Brd4 molecules binding to multiple acetylated targets throughout the heavily modified Pou5f1 enhancer region—rather than possibly less-selective physicochemical forces, e.g. driven by low-complexity protein domains and RNA.
For real-time confocal and STED imaging, example implementations may program the wave generator to scan 2 μm×2 μm or 1 μm×1 μm xy areas in 0.8 sec or 0.2 sec respectively. 3D scanning was performed (via, e.g., detection system 150) by acquiring 5 xy scans while moving the stage by 0.5 μm in z between scans. TTL pulses corresponding to single-photon events from the APDs, together with the trigger pulses from the wave generator were detected using a field-programmable gate array (FPGA) data acquisition system (National Instruments, PCIe-7852R).
Before imaging, cells were seeded onto 8-chamber coverglass (LabTek, 155411) coated with 5 μg/ml laminin (BioLamina LN511), in −2i media (OMG) or +2i media (NMG) and appropriate drugs. For SiR staining, cells were labeled with media containing 0.3 μM SiR-BG for 10 mins, at 37° C., followed by three washes with new media.
To generate OMG SNAP-Cdk9 targeted cells, OMG-1 mESCs (1×106) were transfected with 10 μg SNAP-Cdk9 donor vector and 0.6 μg espCas9-gRNA-Cdk9 vector. 10 days after transfection, the cells were trypsinized, labeled with SiR-BG and subjected to FACS, generating a first-round SiR-positive pool. This pool was then expanded, stained with SiR-BG and subjected to second FACS round and individual clones were picked and expanded.

[2] = tested on: Med22 foci at the Pou5f1 locus; assay: Med22 cluster signal at Pou5f1 upon inhibition (live-cell confocal/STED scans); type: cell-based, mouse; settings: 1 μM JQ1 or 10 μM Flavopiridol
[3] = tested on: CMV mini-gene transcription site (tdPCP-EGFP nascent RNA); assay: tdPCP-EGFP nascent transcription dynamics at the CMV mini-gene after inhibitor addition (wide-field live-cell imaging); type: cell-based, human; settings: U-2 OS cells, after adding 10 μM flavopiridol or 10 μM triptolide, individual transcription site traces, mean±S.D.
From the text: It can be observed that Pol II accumulates at sites of active nascent transcription. Example implementations may first image Pol II dynamics relative to transcription from a single promoter in a synthetic “mini-gene” system, stably integrated as single copies in U-2 OS cells (FIGS. 4A, 11A-11C). Example implementations may track nascent RNA production via phage PP7-derived stem-loops (24×PP7) and a tandem-dimer phage coat protein EGFP fusion (tdPCP-EGFP).
It can be observed in various embodiments that target-locking enables tracking Pol II dynamics during the transcription cycle. […]
Wide-Field Cell Imaging Experiments. […] The CCD data were analyzed using IDL 6.4 (ITTVIS). Maximum projection images were calculated for each stack, and the resulting 11 sec/frame movie was used to track the intensities of individual tdPCP-EGFP-tagged transcription sites. […] The auto-correlation function was calculated (for the tdPCP-EGFP fluctuation analysis), or the data were imported in Origin 8.5.0 (OriginLab) and the trace fitted to a single-exponential decay (for the transcription inhibition experiments).

| SMILES | Cdk9 signal at Pou5f1 upon inhibition [1] | Hill equation n, relative Cdk9 signal vs. [JQ1] ([1]; Pou5f1) | Med22 signal at Pou5f1 upon inhibition [2] | tdPCP-EGFP exponential decay time [3] |
| --- | --- | --- | --- | --- |
| Cc1sc2c(c1C)C(c1ccc(Cl)cc1)=N[C@@H](CC(=O)OC(C)(C)C)c1nnc(C)n1-2 [JQ1] | drop sharply; also recorded: drop close to noise-floor | 0.8±0.1 | drop close to noise-floor | – |
| CN1CC[C@H](c2c(O)cc(O)c3c(=O)cc(-c4ccccc4Cl)oc23)[C@H](O)C1 [flavopiridol] | not lost | – | not lost | 132 ± 38 s |
| CC(C)[C@]12O[C@H]1[C@@H]1O[C@]13[C@]1(O[C@H]1C[C@H]1C4=C(CC[C@@]13C)C(=O)OC4)[C@@H]2O [triptolide] | – | – | – | 179 ± 57 s |
